Key:
Settings in all cases: scale 0 to 100
bluegrass = test: Test D preemergence; type: in vivo, Poa annua
Excerpt: (§1) Seeds of plant species selected from bluegrass (annual bluegrass, Poa annua), blackgrass (Alopecurus myosuroides), canarygrass (littleseed canarygrass, Phalaris minor), chickweed (common chickweed, Stellaria media), galium (catchweed bedstraw, Galium aparine), bromegrass, downy (downy bromegrass, Bromus tectorum), field poppy (Papaver rhoeas), field violet (Viola arvensis), foxtail, green (green foxtail, Setaria viridis), deadnettle (henbit deadnettle, Lamium amplexicaule), ryegrass, Italian (Italian ryegrass, Lolium multiflorum), kochia (Kochia scoparia), lambsquarters (Chenopodium album), oilseed rape (Brassica napus), pigweed (redroot pigweed, Amaranthus retroflexus), chamomile (scentless chamomile, Matricaria inodora), speedwell (bird's-eye speedwell, Veronica persica), barley, spring (spring barley, Hordeum vulgare), wheat, spring (spring wheat, Triticum aestivum), buckwheat, wild (wild buckwheat, Polygonum convolvulus), mustard, wild (wild mustard, Sinapis arvensis), oat, wild (wild oat, Avena fatua), radish, wild (wild radish, Raphanus raphanistrum), windgrass (Apera spica-venti), Russian thistle (Salsola kali), barley, winter (winter barley, Hordeum vulgare), and wheat, winter (winter wheat, Triticum aestivum) were planted into a silt loam soil and treated preemergence with test chemicals formulated in a non-phytotoxic solvent mixture which included a surfactant.
(§2) At the same time, these species were planted in pots containing Redi-Earth® planting medium (Scotts Company, 14111 Scottslawn Road, Marysville, Ohio 43041) comprising spaghnum peat moss, vermiculite, wetting agent and starter nutrients and treated with postemergence applications of the test chemicals formulated in the same manner. Plants ranged in height from 2 to 18 cm (1- to 4-leaf stage). Treated plants and controls were maintained in a controlled growth environment for 14 to 21 days after which time all species were compared to controls and visually evaluated. Plant response ratings, summarized in Table D, are based on a scale of 0 to 100 where 0 is no effect and 100 is complete control. A dash (-) response means no test result.

chickweed = test: Test D preemergence; type: in vivo, Stellaria media
Excerpt: as §1, §2

foxtail, green = test: Test D preemergence; type: in vivo, Setaria viridis
Excerpt: as §1, §2

blackgrass = test: Test D postemergence; type: in vivo, Alopecurus myosuroides
Excerpt: as §1, §2

ryegrass, Italian = test: Test D postemergence; type: in vivo, Lolium multiflorum
Excerpt: as §1, §2

buckwheat, wild = test: Test D postemergence; type: in vivo, Polygonum convolvulus
Excerpt: as §1, §2

radish, wild = test: Test D postemergence; type: in vivo, Raphanus raphanistrum
Excerpt: as §1, §2

| SMILES | Plant response rating, Bluegrass (bluegrass; 31 g ai/ha) | Plant response rating, Bluegrass (bluegrass; 62 g ai/ha) | Plant response rating, Bluegrass (bluegrass; 125 g ai/ha) | Plant response rating, Bluegrass (bluegrass; 250 g ai/ha) | Plant response rating, Chickweed (chickweed; 31 g ai/ha) | Plant response rating, Chickweed (chickweed; 62 g ai/ha) | Plant response rating, Chickweed (chickweed; 125 g ai/ha) | Plant response rating, Chickweed (chickweed; 250 g ai/ha) | Plant response rating, Foxtail, Green (foxtail, green; 62 g ai/ha) | Plant response rating, Foxtail, Green (foxtail, green; 125 g ai/ha) | Plant response rating, Foxtail, Green (foxtail, green; 250 g ai/ha) | Blackgrass plant response rating (blackgrass; Postemergence, 31 g ai/ha) | Blackgrass plant response rating (blackgrass; Postemergence, 125 g ai/ha) | Blackgrass plant response rating (blackgrass; Postemergence, 250 g ai/ha) | Blackgrass plant response rating (blackgrass; postemergence, 62 g ai/ha) | Ryegrass, Italian plant response rating (ryegrass, Italian; Postemergence, 31 g ai/ha) | Ryegrass, Italian plant response rating (ryegrass, Italian; Postemergence, 125 g ai/ha) | Ryegrass, Italian plant response rating (ryegrass, Italian; Postemergence, 250 g ai/ha) | Ryegrass, Italian plant response rating (ryegrass, Italian; postemergence, 62 g ai/ha) | Buckwheat, Wild plant response rating (buckwheat, wild; Postemergence, 31 g ai/ha) | other results |
| --- | --- | --- | --- | --- | --- | --- | --- | --- | --- | --- | --- | --- | --- | --- | --- | --- | --- | --- | --- | --- | --- |
| CCc1cc(C(=O)NC(C)C)nn1Cc1ccnc(C(F)(F)F)c1 [Compound 103] | 10 | 35 | 65 | 85 | 95 | 100 | 100 | 100 | 100 | 100 | 100 | 5 | 20 | 35 | 10 | 5 | 5 | 35 | 5 | 25 | Plant response rating, Foxtail, Green (foxtail, green; 31 g ai/ha): 20; Buckwheat, Wild plant response rating (buckwheat, wild; Postemergence, 125 g ai/ha): 55; Buckwheat, Wild plant response rating (buckwheat, wild; Postemergence, 250 g ai/ha): 60; Buckwheat, Wild plant response rating (buckwheat, wild; postemergence, 62 g ai/ha): 50; Radish, Wild plant response rating (radish, wild; Postemergence, 31 g ai/ha): 25; Radish, Wild plant response rating (radish, wild; Postemergence, 125 g ai/ha): 50; Radish, Wild plant response rating (radish, wild; Postemergence, 250 g ai/ha): 60; Radish, Wild plant response rating (radish, wild; postemergence, 62 g ai/ha): 35 |
| CCCc1cc(C(=O)NCC(F)(F)F)nn1Cc1cc(C(F)(F)F)nn1C [Compound 138] | 20 | 55 | 90 | 100 | 100 | 100 | 100 | 100 | 100 | 100 | 100 | 25 | 40 | 75 | 25 | 15 | 15 | 55 | 15 | 65 | Buckwheat, Wild plant response rating (buckwheat, wild; Postemergence, 125 g ai/ha): 70; Buckwheat, Wild plant response rating (buckwheat, wild; Postemergence, 250 g ai/ha): 80; Buckwheat, Wild plant response rating (buckwheat, wild; postemergence, 62 g ai/ha): 65; Radish, Wild plant response rating (radish, wild; Postemergence, 31 g ai/ha): 80; Radish, Wild plant response rating (radish, wild; Postemergence, 125 g ai/ha): 100; Radish, Wild plant response rating (radish, wild; Postemergence, 250 g ai/ha): 95; Radish, Wild plant response rating (radish, wild; postemergence, 62 g ai/ha): 80 |

Source: patent publication US20150105252A1, “SUBSTITUTED PYRAZOLES AS HERBICIDES” (E I DU PONT DE NEMOURS AND COMPANY, priority 2013, published 2015)
